The results in this text go back to patent US10028961B2, “Therapeutically active compounds and their methods of use” (AGIOS PHARMACEUTICALS, INC., priority 2013, dated 2018).

Molecules are shown by their SMILES.

Experiment [1] concerns the target IDH1 wt/IDH1 R132H heterodimer (Homo sapiens (Human), UniProt O75874, R132H). In words: In vitro assay for IDH1m R132H inhibitors, IDH1 wt/IDH1 R132H heterodimer, NADPH depletion (diaphorase/resazurin). It counts as biochemical. The note with it: IDH1 wt/R132H heterodimer, NADPH/NADP, not saturated; read-out: IDH1 wt/R132H NADPH/NADP IC50 not saturated. The method in brief:
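Purified IDH1wt-his/IDH1R132H-flag heterodimer (sf9 co-expression) pre-incubated 1 hr at room temperature with compound and NADPH before α-KG addition. Remaining NADPH read by diaphorase/resazurin conversion to fluorescent resorufin, 5 min at 25° C. Compounds diluted 1:50 from DMSO; IC50 determined.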

Experiment [2] concerns the target IDH1-R132H homodimer enzyme (Homo sapiens (Human), UniProt O75874, R132H). The experiment can be described thus: In vitro assay IDH1-R132H homodimer, NADPH depletion assay with NADPH/NADP preincubation. It counts as biochemical. The note with it: 5 μM NADPH and 37.5 μM NADP. The method in brief:
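Conversion of alpha-ketoglutarate to 2-hydroxyglutarate tracked by NADPH depletion. Reaction started with 5 mM alpha-ketoglutarate plus NADPH substrate mix (50 μl total), 60 min at room temperature. Leftover NADPH quantified via diaphorase/resazurin fluorescence.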

The target in the next experiment is IDH2 R140Q (Homo sapiens (Human), UniProt P48735, R140Q). The experiment can be described thus: In vitro assay for IDH2m R140Q inhibitors, cofactor depletion assay. It is filed as biochemical. The note with it: IDH2 R140Q enzyme. The method in brief:
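Remaining cofactor measured fluorimetrically: diaphorase/resazurin Stop Mix […], halting the reaction. Before that, mutant enzyme and compound sat 1 h at RT, then substrate mix (4 μM NADPH, 1.6 mM α-KG) was added for 16 h at RT.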

The subject of another experiment is HT1080 cells. In words: Cellular assay for IDH1m R132C inhibitors, 2-HG by LC-MS in HT1080 cells. It is filed as cell-based. The note with it: Homo sapiens, HT-1080. The procedure:
The following describes the experimental procedures that can be used to obtain data on column 5 of Table 4.
Cells (HT1080 or U87MG) are grown in T125 flasks in DMEM containing 10% FBS, 1× penicillin/streptomycin and 500 ug/mL G418 (present in U87MG cells only). They are harvested by trypsin and seeded into 96 well white bottom plates at a density of 5000 cell/well in 100 ul/well in DMEM with 10% FBS. No cells are placed in columns 1 and 12. Cells are incubated overnight at 37° C. in 5% CO2. The next day test compounds are made up at 2× the final concentration and 100 ul are added to each cell well. The final concentration of DMSO is 0.2% and the DMSO control wells are plated in row G. The plates are then placed in the incubator for 48 hours. At 48 hours, 100 ul of media is removed from each well and analyzed by LC-MS for 2-HG concentrations. The cell plate is placed back in the incubator for another 24 hours. At 72 hours post compound addition, 10 mL/plate of Promega Cell Titer Glo reagent is thawed and mixed. The cell plate is removed from the incubator and allowed to equilibrate to room temperature. Then 100 ul of Promega Cell Titer Glo reagent is added to each well of media. The cell plate is then placed on an orbital shaker for 10 minutes and then allowed to sit at room temperature for 20 minutes. The plate is then read for luminescence with an integration time of 500 ms.
HT1080 cells are maintained in RPMI containing 10% FBS, 1× penicillin/streptomycin. […] The next day compounds are prepared in 100% DMSO and then diluted in media for a final concentration of 0.2% DMSO. Media is removed from the cell plates and 200 μL of the compound dilutions are added to each well. […] The cell plates are then allowed to incubate another 24 hours.

In experiment [3] the test system is U87MG pLVX-IDH2 R140Q-neo cells. The experiment can be described thus: U87MG pLVX-IDH2 R140Q-neo cell based assay, 2-HG by LC-MS. The note with it: Homo sapiens, U-87 MG.
For experiment [4], the system named is Neurosphere cells (TS603). The experiment can be described thus: Cellular assay for IDH1m R132H inhibitors, 2-HG by LC-MS in neurosphere cells (TS603). It is filed as cell-based. The conditions noted are these: 2-HG in media at 48 hours. The method in brief: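 TS603 neurosphere cells in NeuroCult medium were dosed with compound (0.25% DMSO final) at 37 C, 5% CO2. After 48 hours, medium 2-HG was measured by LC-MS. At 72 hours, viability was read by CellTiter-Glo luminescence.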

Chain of IDH2 R140Q (P48735 40-452 R140Q): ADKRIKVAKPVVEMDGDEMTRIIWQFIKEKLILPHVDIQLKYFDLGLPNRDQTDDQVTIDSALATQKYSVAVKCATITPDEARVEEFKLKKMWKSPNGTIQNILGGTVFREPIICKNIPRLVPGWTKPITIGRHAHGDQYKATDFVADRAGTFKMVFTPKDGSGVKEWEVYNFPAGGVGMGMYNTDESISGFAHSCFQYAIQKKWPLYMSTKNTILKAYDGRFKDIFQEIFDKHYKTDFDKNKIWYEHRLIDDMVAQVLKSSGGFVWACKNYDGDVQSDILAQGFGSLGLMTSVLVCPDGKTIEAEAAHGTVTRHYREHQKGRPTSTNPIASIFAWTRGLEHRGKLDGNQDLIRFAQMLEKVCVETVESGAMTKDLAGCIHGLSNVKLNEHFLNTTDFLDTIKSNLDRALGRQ
Chain of IDH1-R132H homodimer enzyme (O75874 whole entry R132H): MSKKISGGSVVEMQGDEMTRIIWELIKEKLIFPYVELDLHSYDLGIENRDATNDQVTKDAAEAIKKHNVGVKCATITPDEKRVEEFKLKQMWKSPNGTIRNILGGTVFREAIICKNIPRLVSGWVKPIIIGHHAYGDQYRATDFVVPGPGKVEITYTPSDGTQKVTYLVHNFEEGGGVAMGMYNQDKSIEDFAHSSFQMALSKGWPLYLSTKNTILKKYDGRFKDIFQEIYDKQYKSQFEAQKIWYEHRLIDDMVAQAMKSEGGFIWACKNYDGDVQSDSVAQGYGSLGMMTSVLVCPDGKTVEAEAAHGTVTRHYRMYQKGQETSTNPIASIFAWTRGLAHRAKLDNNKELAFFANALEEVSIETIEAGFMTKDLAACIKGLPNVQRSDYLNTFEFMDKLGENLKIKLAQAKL
Chain of IDH1 wt/IDH1 R132H heterodimer (O75874 whole entry R132H): as above
Chain of IDH1 wt/IDH1 R132H heterodimer (O75874 whole entry, stated change not applied): as the sequence (O75874 whole entry R132H) above, with H132R counted along it

In the case of `N#Cc1cc(F)cc(Nc2nc(NC3CCC(F)(F)C3)nc(-n3ccc(C(F)(F)F)n3)n2)c1` (centres unmarked) [Compound 112], the IC50 in experiment [1] is less than 50 nM; in experiment [2] it was less than 50 nM; against IDH2 R140Q, less than 50 nM; in the experiment with HT1080 cells, 100 to 1000 nM; in experiment [3], less than 50 nM; in experiment [4], less than 50 nM.
Take `C[C@@H](Nc1nc(Nc2ccnc(C#N)c2)nc(-n2ccc(C(F)(F)F)n2)n1)C(F)(F)F` [Compound 207]: the IC50 in experiment [1] is less than 50 nM; in experiment [2], 50 to 100 nM; at IDH2 R140Q, less than 50 nM; in the experiment on HT1080 cells it was 100 to 1000 nM; in experiment [3] it was less than 50 nM; in experiment [4], less than 50 nM.
As for `FC1(F)CCC(Nc2nc(Nc3ccnc(-c4ccccc4)c3)nc(-c3cccc(C(F)(F)F)n3)n2)CC1` [Compound 220], the IC50 in experiment [1] was less than 50 nM; in experiment [2], 50 to 100 nM; at IDH2 R140Q, 50 to 100 nM; in the experiment with HT1080 cells it was 100 to 1000 nM; in experiment [3] it was 50 to 100 nM; in experiment [4], less than 50 nM.
On to `FC(F)(F)CNc1nc(Nc2ccnc(C(F)(F)F)c2)nc(-c2cccc(C(F)(F)F)n2)n1` [Compound 232], for which the IC50 in experiment [1] is less than 50 nM; in experiment [2], 100 to 1000 nM; against IDH2 R140Q it was less than 50 nM; with HT1080 cells it was more than 1000 nM; in experiment [3] it was less than 50 nM; in experiment [4] it was less than 50 nM.
As to `N#Cc1cc(F)cc(Nc2nc(NCC3CC3)nc(-c3cccc(C(F)(F)F)n3)n2)c1` [Compound 175], the IC50 was less than 50 nM in experiment [1]; 50 to 100 nM in experiment [2]; less than 50 nM at IDH2 R140Q; 100 to 1000 nM with HT1080 cells; less than 50 nM in experiment [3]; less than 50 nM in experiment [4].
With `CC(Nc1nc(Nc2cc(F)cc(F)c2)nc(-n2ccc(C(F)(F)F)n2)n1)C(F)(F)F` (centres unmarked) [Compound 107], the IC50 is less than 50 nM in experiment [1]; less than 50 nM in experiment [2]; less than 50 nM against IDH2 R140Q; 100 to 1000 nM with HT1080 cells; less than 50 nM in experiment [3]; less than 50 nM in experiment [4].
`N#Cc1cc(F)cc(Nc2nc(NC3CC(F)(F)C3)nc(-n3ccc(C(F)(F)F)n3)n2)c1` [Compound 140]: the IC50 is less than 50 nM in experiment [1]; less than 50 nM in experiment [2]; less than 50 nM on IDH2 R140Q; 100 to 1000 nM in the experiment on HT1080 cells; less than 50 nM in experiment [3]; less than 50 nM in experiment [4].
`FC1(F)CC(CNc2nc(NCC3CC(F)(F)C3)nc(-c3cccc(C(F)(F)F)n3)n2)C1` [Compound 216]: the IC50 in experiment [1] is less than 50 nM; in experiment [2] it was 100 to 1000 nM; against IDH2 R140Q it was less than 50 nM; with HT1080 cells, 100 to 1000 nM; in experiment [3], less than 50 nM; in experiment [4] it was less than 50 nM.
For the molecule `FC1(F)CC[C@@H](Nc2nc(N[C@H]3CCC(F)(F)C3)nc(-c3cccc(C(F)(F)F)n3)n2)C1` [Compound 102], the IC50 (in experiment [1]; in experiment [2]; on IDH2 R140Q; with HT1080 cells; in experiment [3]; in experiment [4]) was less than 50 nM throughout.
With `C[C@@H](Nc1nc(NC(C(F)(F)F)C(F)(F)F)nc(-c2cccc(Cl)n2)n1)C(F)(F)F` [Compound 100], the IC50 (in experiment [1]; in experiment [2]; against IDH2 R140Q; with HT1080 cells; in experiment [4]) was less than 50 nM throughout.
For `CC(Nc1nc(Nc2ccnc(C(F)(F)F)c2)nc(-c2cccc(C(F)(F)F)n2)n1)C(F)(F)F` (centres unmarked) [Compound 171], the IC50 is less than 50 nM in experiment [1]; 50 to 100 nM in experiment [2]; less than 50 nM against IDH2 R140Q; 100 to 1000 nM in the experiment with HT1080 cells; less than 50 nM in experiment [3]; less than 50 nM in experiment [4].
`FC1(F)CC(CNc2nc(Nc3ccnc(C(F)(F)F)c3)nc(-c3cccc(C(F)(F)F)n3)n2)C1` [Compound 221]: the IC50 in experiment [1] was less than 50 nM; in experiment [2], 100 to 1000 nM; at IDH2 R140Q, less than 50 nM; in the experiment on HT1080 cells, more than 1000 nM; in experiment [3], less than 50 nM; in experiment [4], less than 50 nM.
With `N#CC1(c2cc(Nc3nc(NCC(F)(F)F)nc(-c4cccc(Cl)n4)n3)ccn2)CC1` [Compound 215], the IC50 in experiment [1] was less than 50 nM; in experiment [2] it was 50 to 100 nM; against IDH2 R140Q it was less than 50 nM; in the experiment with HT1080 cells, 100 to 1000 nM; in experiment [3] it was less than 50 nM; in experiment [4], less than 50 nM.
On to `CC(Nc1nc(NC(C)C(F)(F)F)nc(-c2cncc(Cl)n2)n1)C(F)(F)F` (centres unmarked) [Compound 156], for which the IC50 (in experiment [1]; in experiment [2]; against IDH2 R140Q; in the experiment with HT1080 cells; in experiment [3]; in experiment [4]) was less than 50 nM throughout.
Take `N#Cc1cc(F)cc(Nc2nc(NC3CC(F)(F)C3)nc(-c3nc(C(F)(F)F)cs3)n2)c1` [Compound 122]: the IC50 is less than 50 nM in experiment [1]; less than 50 nM in experiment [2]; less than 50 nM against IDH2 R140Q; 50 to 100 nM with HT1080 cells; less than 50 nM in experiment [3]; less than 50 nM in experiment [4].
`Fc1cc(F)cc(Nc2nc(NC3CCC(F)(F)C3)nc(-n3ccc(C(F)(F)F)n3)n2)c1` (centres unmarked) [Compound 108]: the IC50 is less than 50 nM in experiment [1]; less than 50 nM in experiment [2]; less than 50 nM against IDH2 R140Q; 50 to 100 nM in the experiment with HT1080 cells; less than 50 nM in experiment [3]; less than 50 nM in experiment [4].
For the molecule `CC(F)(F)c1cccc(-c2nc(Nc3ccnc(C4(C#N)CC4)c3)nc(NC3CCC(F)(F)CC3)n2)n1` [Compound 211], the IC50 is less than 50 nM in experiment [1]; 100 to 1000 nM in experiment [2]; less than 50 nM at IDH2 R140Q; 100 to 1000 nM with HT1080 cells; less than 50 nM in experiment [3]; less than 50 nM in experiment [4].
Take `FC1(F)CCC(Nc2nc(NC3CCC(F)(F)C3)nc(-c3ccnc(C(F)(F)F)n3)n2)C1` (centres unmarked) [Compound 194]: the IC50 is less than 50 nM in experiment [1]; 100 to 1000 nM in experiment [2]; 50 to 100 nM on IDH2 R140Q; 50 to 100 nM in the experiment on HT1080 cells; 50 to 100 nM in experiment [3]; less than 50 nM in experiment [4].
For the molecule `FC(F)c1csc(-c2nc(NC3CCC(F)(F)CC3)nc(NC3CCC(F)(F)CC3)n2)n1` [Compound 205], the IC50 in experiment [1] was less than 50 nM; in experiment [2], 100 to 1000 nM; at IDH2 R140Q, less than 50 nM; in the experiment with HT1080 cells, 50 to 100 nM; in experiment [3], less than 50 nM; in experiment [4], less than 50 nM.
As for `N#Cc1cc(Nc2nc(NC3CC(F)(F)C3)nc(-n3ccc(C(F)(F)F)n3)n2)ccn1` [Compound 210], the IC50 in experiment [1] was less than 50 nM; in experiment [2], 50 to 100 nM; at IDH2 R140Q it was less than 50 nM; in the experiment on HT1080 cells, 100 to 1000 nM; in experiment [3], less than 50 nM; in experiment [4] it was less than 50 nM.
Consider `FC1(F)CCC(Nc2nc(Nc3ccnc(-c4ccccc4)c3)nc(-c3cccc(C(F)(F)F)n3)n2)C1` (centres unmarked) [Compound 202], for which the IC50 was less than 50 nM in experiment [1]; 100 to 1000 nM in experiment [2]; less than 50 nM on IDH2 R140Q; 100 to 1000 nM in the experiment on HT1080 cells; less than 50 nM in experiment [3]; less than 50 nM in experiment [4].
Turning to `FC1(F)CCC(Nc2nc(NC3CCC(F)(F)CC3)nc(-c3cccc(Cl)n3)n2)CC1` [Compound 212], the IC50 in experiment [1] was less than 50 nM; in experiment [2] it was 100 to 1000 nM; against IDH2 R140Q, less than 50 nM; with HT1080 cells, 50 to 100 nM; in experiment [3], less than 50 nM; in experiment [4] it was less than 50 nM.
